Here are results for 1 compound from patent publication US6294527A, “Cephem compounds” (Zenyaku Kogyo Kabushiki Kaisha, priority 1996, dated 2001).

For assay [1], the system named is Staphylococcus aureus (S. aureus FDA 209P). As to the kind of experiment: Agar plate dilution MIC, Staphylococcus aureus FDA 209P. It counts as cell-based. The note with it: FDA209P, agar plate dilution, inoculum 10^6 CFU/ml, read-out: MIC S. aureus FDA 209P. How it is done: (§1) Antibacterial test was performed in substantial accordance with agar plate dilution method based on Standard method of The Japan Society of Chemotherapy to determine minimum inhibitory concentration (MIC) of the respective test compounds against Staphylococcus aureus (S. aureus FDA 209P) and vancomycin-resistant enterococci (E. faecalis NCTC-12201). Also determined was MIC80 on clinically separated strains (27 strains) of MRSA. The inoculated amount was 10^6 CFU/ml and flomoxef (FMOX) and vancomycin (VCM) were used as controls.

The test system of assay [2] is vancomycin-resistant enterococci (E. faecalis NCTC-12201). As to the kind of experiment: Agar plate dilution MIC, vancomycin-resistant enterococci E. faecalis NCTC-12201. It counts as cell-based. The note with it: Enterococcus faecalis, NCTC12201; agar plate dilution; inoculum 10^6 CFU/ml; vancomycin-resistant; read-out: MIC E. faecalis NCTC-12201. The procedure: as §1

As for `NCc1c(SC=CC2=C(C(=O)O)N3C(=O)[C@@H](NC(=O)Cc4cccs4)[C@H]3SC2)sc2sc(Cl)cc2c1=O` [compound 31, 7-[2-(2-thienyl)acetamide]-3-[2-(5-aminomethyl-2-chloro-4-oxo-4H-thieno[2,3-b]thiopyran-6-yl)thiovinyl]-3-cephem-4-carboxylic acid.trifluoroacetate], the MIC in assay [1] worked out at 0.1 µg/mL; in assay [2], 3.13 µg/mL.
